# Measured values taken from US20240376073A1 (Hoffmann-La Roche Inc., priority 2021, published 2024).
# Where a name gives a salt, the structure may show the parent alone.
# System: Acinetobacter baumannii ATCC17961
# Assay: Antimicrobial susceptibility testing: 90% growth inhibitory concentration (IC90) determination
# Assay type: cell-based
# Settings: Acinetobacter baumannii ATCC17961; Iso-Sensitest broth; growth by OD 600 nm over 16 h; 35±2° C.; read-out: ATCC 17961 IC90
# Procedure: The in vitro antimicrobial activity of the compounds was determined according to the following procedure:
# The assay used a 10-points Iso-Sensitest broth medium to measure quantitatively the in vitro activity of the compounds against Acinetobacter baumannii ATCC17961.
# Stock compounds in DMSO were serially twofold diluted (e.g. range from 50 to 0.097 μM final concentration) in 384 wells microtiter plates and inoculated with 49 μl the bacterial suspension in Iso-Sensitest medium to have a final cell concentration of ˜5×10^(5) CFU/ml in a final volume/well of 50 ul/well. Microtiter plates were incubated at 35±2° C.
# Bacterial cell growth was determined with the measurement of optical density at λ=600 nm each 20 minutes over a time course of 16 h. Growth inhibition was calculated during the logarithmic growth of the bacterial cells with determination of the concentration inhibiting 50% (IC50) and 90% (IC90) of the growth.
# Table 1 provides the […] growth inhibitory concentrations (IC90) in micromoles per liter of the compounds of present invention obtained against the strain Acinetobacter baumannii ATCC17961.
row,IC90,SMILES
1,1200 nM,"Cc1cc(NC(=O)c2ncc(-c3ccc(OCC#N)c(F)c3F)n2C)ccc1C(=O)N[C@H]1C[C@@H](NCC[N+](C)(C)C)C1 [Example A19, 2-[[3-[[4-[[5-[4-(cyanomethoxy)-2,3-difluoro-phenyl]-1-methyl-imidazole-2-carbonyl]amino]-2-methyl-benzoyl]amino]cyclobutyl]amino]ethyl-trimethyl-ammonium formate]"
2,320 nM,"COc1ccc(-c2cnc(C(=O)Nc3ccc(C(=O)NCc4cn(CCO)[n+](C)c4)c(Cl)c3)n2C)c(F)c1F [Example A20, N-[3-chloro-4-[[1-(2-hydroxyethyl)-2-methyl-pyrazol-2-ium-4-yl]methylcarbamoyl]phenyl]-5-(2,3-difluoro-4-methoxy-phenyl)-1-methyl-imidazole-2-carboxamide;formate]"
3,88 nM,"COc1ccc(-c2cnc(C(=O)Nc3ccc(C(=O)NCc4cnc(NC(=O)C5CCC[N+]5(C)C)s4)c(Cl)c3)n2C)c(F)c1F (centres unmarked) [Example A28, N-[3-chloro-4-[2-[(1,1-dimethylpyrrolidin-1-ium-2-carbonyl)amino]thiazol-5-yl]methylcarbamoyl]phenyl]-5-(2,3-difluoro-4-methoxy-phenyl)-1-methyl-imidazole-2-carboxamide; formate]"
4,140 nM,"COc1ccc(-c2cnc(C(=O)Nc3ccc(C(=O)NCc4cnc(NC(=O)C5CC[N+](C)(CC(N)=O)CC5)s4)c(Cl)c3)n2C)c(F)c1F (centres unmarked) [Example A30, 1-(2-amino-2-oxo-ethyl)-N-[5-[[[2-chloro-4-[[5-(2,3-difluoro-4-methoxy-phenyl)-1-methyl-imidazole-2-carbonyl]amino]benzoyl]amino]methyl]thiazol-2-yl]-1-methyl-piperidin-1-ium-4-carboxamide; formate]"
5,280 nM,"COc1ccc(-c2cnc(C(=O)Nc3ccc(C(=O)N4CCN(C(=O)C[N+](C)(C)CC(N)=O)CC4)c(C)c3)n2C)c(F)c1F [Example B1, (2-Amino-2-oxo-ethyl)-[2-[4-[4-[[5-(2,3-difluoro-4-methoxy-phenyl)-1-methyl-imidazole-2-carbonyl]amino]-2-methyl-benzoyl]piperazin-1-yl]-2-oxo-ethyl]-dimethyl-ammonium;formate]"
6,230 nM,"Cc1cc(NC(=O)c2ncc(-c3ccc(OCC#N)c(F)c3F)n2C)ccc1C(=O)N1CCN(C(=O)C[N+](C)(C)CC(N)=O)CC1 [Example B2, (2-amino-2-oxo-ethyl)-[2-[4-[4-[[5-[4-(cyanomethoxy)-2,3-difluoro-phenyl]-1-methyl-imidazole-2-carbonyl]amino]-2-methyl-benzoyl]piperazin-1-yl]-2-oxo-ethyl]-dimethyl-mmonium; formate]"

# Further lines, the molecule ahead of its results:
row,SMILES,IC90
1,"COc1ccc(-c2cnc(C(=O)Nc3ccc(C(=O)NCc4cn(CCCO)[n+](C)c4)c(Cl)c3)n2C)c(F)c1F [Example A21, N-[3-chloro-4-[1-(3-hydroxypropyl)-2-methyl-pyrazol-2-ium-4-yl]methylcarbamoyl]phenyl]-5-(2,3-difluoro-4-methoxy-phenyl)-1-methyl-imidazole-2-carboxamide; formate]",330 nM
2,"COc1ccc(-c2cnc(C(=O)Nc3ccc(C(=O)NCc4cn(CCC#N)[n+](C)c4)c(Cl)c3)n2C)c(F)c1F [Example A22, N-[3-chloro-4-[1-(2-cyanoethyl)-2-methyl-pyrazol-2-ium-4-yl]methylcarbamoyl]phenyl]-5-(2,3-difluoro-4-methoxy-phenyl)-1-methyl-imidazole-2-carboxamide; formate]",390 nM
3,"COc1ccc(-c2cnc(C(=O)Nc3ccc(C(=O)NCc4cn(CC(N)=O)[n+](C)c4)c(Cl)c3)n2C)c(F)c1F [Example A23, N-[4-[1-(2-amino-2-oxo-ethyl)-2-methyl-pyrazol-2-ium-4-yl]methylcarbamoyl]-3-chloro-phenyl]-5-(2,3-difluoro-4-methoxy-phenyl)-1-methyl-imidazole-2-carboxamide; formate]",400 nM
4,"COCCCn1cc(CNC(=O)c2ccc(NC(=O)c3ncc(-c4ccc(OC)c(F)c4F)n3C)cc2Cl)c[n+]1C [Example A25, N-[3-chloro-4-[1-(3-methoxypropyl)-2-methyl-pyrazol-2-ium-4-yl]methylcarbamoyl]phenyl]-5-(2,3-difluoro-4-methoxy-phenyl)-1-methyl-imidazole-2-carboxamide; formate]",410 nM
5,"COc1ccc(-c2cnc(C(=O)Nc3ccc(C(=O)NCc4cn(CCOCCO)[n+](C)c4)c(Cl)c3)n2C)c(F)c1F [Example A26, N-[3-chloro-4-[1-[2-(2-hydroxyethoxy)ethyl]-2-methyl-pyrazol-2-ium-4-yl]methylcarbamoyl]phenyl]-5-(2,3-difluoro-4-methoxy-phenyl)-1-methyl-imidazole-2-carboxamide; formate]",410 nM
6,"COc1ccc(-c2cnc(C(=O)Nc3ccc(C(=O)NCc4cnc(NC(=O)[C@@H]5C[C@@H](O)C[N+]5(C)C)s4)c(Cl)c3)n2C)c(F)c1F [Example A27, N-[3-chloro-4-[[2-[[(2S,4R)-4-hydroxy-1,1-dimethyl-pyrrolidin-1-ium-2-carbonyl]amino]thiazol-5-yl]methylcarbamoyl]phenyl]-5-(2,3-difluoro-4-methoxy-phenyl)-1-methyl-imidazole-2-carboxamide; formate]",56 nM
7,"COc1ccc(-c2cnc(C(=O)Nc3ccc(C(=O)NCc4cnc(NC(=O)C5CC[N+](C)(C)CC5)s4)c(Cl)c3)n2C)c(F)c1F [Example A29, N-[5-[2-chloro-4-[[5-(2,3-difluoro-4-methoxy-phenyl)-1-methyl-imidazole-2-carbonyl]amino]benzoyl]amino]methyl]thiazol-2-yl]-1,1-dimethyl-piperidin-1-ium-4-carboxamide; formate]",170 nM
8,"COc1ccc(-c2cnc(C(=O)Nc3ccc(C(=O)N4CCC(C(=O)NCc5cnc(NC(=O)C6CC[N+](C)(C)CC6)s5)CC4)c(Cl)c3)n2C)c(F)c1F [Example A31, N-[5-[[1-[2-chloro-4-[[5-(2,3-difluoro-4-methoxy-phenyl)-1-methyl-imidazole-2-carbonyl]amino]benzoyl]piperidine-4-carbonyl]amino]methyl]thiazol-2-yl]-1,1-dimethyl-piperidin-1-ium-4-carboxamide; formate]",170 nM
9,"COc1ccc(-c2cnc(C(=O)Nc3ccc(C(=O)N4CCN(C(=O)CC[N+](C)(C)CC(N)=O)CC4)c(C)c3)n2C)c(F)c1F [Example B3, (2-amino-2-oxo-ethyl)-[3-[4-[4-[[5-(2,3-difluoro-4-methoxy-phenyl)-1-methyl-imidazole-2-carbonyl]amino]-2-methyl-benzoyl]piperazin-1-yl]-3-oxo-propyl]-dimethyl-ammonium; 2,2,2-trifluoroacetate]",190 nM
10,"Cn1c(-c2ccc(OCC#N)c(F)c2F)cnc1C(=O)Nc1ccc(C(=O)N2CCN(C(=O)C[N+](C)(C)CC(N)=O)CC2)c(Cl)c1 [Example B4, (2-amino-2-oxo-ethyl)-[2-[4-[2-chloro-4-[[5-[4-(cyanomethoxy)-2,3-difluoro-phenyl]-1-methyl-imidazole-2-carbonyl]amino]benzoyl]piperazin-1-yl]-2-oxo-ethyl]-dimethyl-ammonium; formate]",110 nM

# Same assay, conditions: Acinetobacter baumannii, ATCC17961, 16 h, read-out: ATCC 17961 IC90, Acinetobacter baumannii ATCC17961; Iso-Sensitest broth; growth by OD 600 nm over 16 h; 35±2° C.
row,SMILES,IC90
1,"COc1ccc(-c2cnc(C(=O)Nc3ccc(C(=O)NCc4cn(CCS(C)(=O)=O)[n+](C)c4)c(Cl)c3)n2C)c(F)c1F [Example A24, N-[3-chloro-4-[[1-methyl-2-(2-methylsulfonylethyl)pyrazol-1-ium-4-yl]methylcarbamoyl]phenyl]-5-(2,3-difluoro-4-methoxy-phenyl)-1-methyl-imidazole-2-carboxamide; formate]",350 nM
